Measurements as given in patent publication US20100087539A1, “N'--3-AMINO-3-PHENYLPROPEONIC ACID AND THE PHARMACEUTICALLY ACCEPTABLE DERIVATIVES THEREOF, A METHOD FOR THE PRODUCTION AND THE USE THEREOF IN THE FORM OF A MEDICINAL AGENT” (priority 2006, published 2010).
“And” between values parts separate entries of the source, which are not always exact repeats. Equal values may be shown once. Read-outs that look alike come from different tables or passages of the source.

Columns and labels:
[1] = system: T-cellular immunity; assay: T-cellular immunity upon immunization with sheep red blood cells, rosette formation method; assay type: in vivo, mice; conditions: for Number of rosettes per 10^3 cells: mice, s.c. SRBC with compound (10 mg/kg), splenocytes at day 6; for Stimulation index: rosettes with compound / rosettes with SRBC alone
Procedure: The effect on stimulating T-cellular immunity upon injection with a strong antigen of sheep red blood cells (SRBC) was studied by the rosette formation method.
Outbred male mice weighing 20-22 g were used in the experiment. […] SRBC without dipeptide 1 (negative control) or SRBC with IFA or with GA (positive control) were injected to the control animals; another control group—preimmune animals. At day 6 post immunization a suspension of splenocytes was prepared at a concentration of […] per 1 milliliter. 0.9 ml of the splenocyte suspension and 0.1 ml of a suspension of sheep red blood cells (10^9 cells per milliliter) were placed in glass vials, mixed and incubated for 16 h at 4° C. After incubation, 4 ml of a cold medium was added into the glass vial, carefully mixed; 100 μl of cell suspension was withdrawn using a pipette with a wide-bore mouth, stained with a 0.4% trypan blue solution and the number of rosettes was counted in a Gorjaev's chamber [Friemel H Immunological methods/Translated from German, edited by M. A. Frolova.—Moscow: Mir, 1979, 518 p.]. The results are presented as the number of rosettes formed per […]. The stimulation index was calculated as a ratio of the number of rosettes in the experiment (immunization with SRBC in a mixture with the compound studied) and the number of rosettes in the control (immunization with SRBC alone).

[2] = system: B-cellular immunity; assay: B-cellular immunity upon immunization with BSA, specific antibody titer by enzyme-linked immunoassay; assay type: in vivo, mice; conditions: for Antibody titer (inverse value): mice, s.c. BSA with compound, sera at day 10 post second immunization; for Immunogenicity coefficient: relative to BSA without the preparation
Procedure: 400 μg of BSA was injected subcutaneously to the animals in 0.5 ml of 0.9% NaCl. Three groups of control animals were involved. […] Additionally, glycyrrhizinic acid (GA) was used as a known immunomodulator. Preimmune mice served as a control. At day 21 the second immunization was performed similarly (the injection solution contained 100 μg of BSA and 200 μg of the test compound). At day 10 post the second immunization blood sera were collected. The titer of antibodies was determined by an enzyme-linked immunoassay technique according to the procedure as described [Enzyme-linked immunoassay technique//Edited by T. T. Igo, G. Lenkhoffaju—Moscow: Mir, 1998].

[3] = system: HIV-1/EVK; assay: microbe, parasite or virus in culture; assay type: cell-based; conditions: added after virus adsorption; for EC50: read-out: Protection of cells from death PD50
Procedure: The Anti-HIV activity of dipeptide 1 was studied on a highly HIV-sensitive cell culture MT-4. […] Then, aliquots of serial dilutions of dipeptide 1 in DMSO were added into the wells to the final concentrations of 0.1 ng/ml to 1 μg/ml (each concentration in triplicate). The experimental (with the preparation added) and control (without the preparation added) infected cells were cultivated at 37° C. and 5% CO2 for 4 days. […] 3, p. […] The inhibiting dose for dipeptide 1 is 0.4 μM. The dose of the compound protecting the cells from death (PD50) was also determined. […] Additionally, the selectivity index (IS) calculated as a ratio of the toxic dose of dipeptide 1 to the protection dose thereof PD50 (CD50/PD50) was determined.

[4] = system: white outbred mice; assay: Acute toxicity, intraperitoneal injection; assay type: in vivo
Procedure: 0.5 ml of the compound was injected intraperitoneally to mice weighing 20 g, each group comprising 4 animals. 0.5 ml of sterile sunflower oil was injected to the control mice.

[5] = system: MT-4 cells; assay: Cytotoxicity on MT-4 cells (trypan blue viable cell count, 4 days); conditions: concentration reducing by 50% the proportion of viable MT-4 cells
[6] = system: HIV-1/EVK; assay: microbe, parasite or virus in culture; assay type: cell-based; conditions: added simultaneously with the virus
Procedure: The anti-HIV activity of dipeptide 1 was studied on a highly HIV-sensitive cell culture MT-4. The MT-4 cells were added into the wells of a 96-well culture plate and infected with a virus stock (strain HIV-1/EVK) at a multiplicity of infection of 0.2-0.5 tissue culture infective dose per cell, then the test substance was added into a cell suspension simultaneously with the virus to give the final concentration of 0.00001 to 1 μg/ml (each concentration in triplicate) and incubated at 37° C. for 1 h (virus adsorption). On completion of the incubation, the suspension of the infected cells was diluted with a complete growth medium with all supplements as described above containing the preparations in the same concentrations to give the inoculation concentration of 0.5×10^6 cells/ml.
The experimental (with the preparation added) and control (without the preparation added) infected cells and control uninfected cells (without the preparation added) were cultivated at 37° C. and 5% CO2 for 4 days. On completion of the incubation the proportion of viable cells was counted in a Gorjaev's chamber after staining with a 0.4% trypan blue solution and the accumulation level of virus-specific protein p24 was controlled by the immunoenzyme method as described [Fedyuk N. V., Konovalov E. E., Loktev V. B., Uryvaev L. V., Kulyandin S. A., Pokrovsky A. G.//Problems of Virology, 1992, v. 3, p. 135].
In addition, the inhibiting dose ID90 that corresponds to the concentration of dipeptide 1 suppressing the virus production by 90% was determined. […] PD50, the concentration of dipeptide 1 protecting by 50% the infected cells from the virus-induced cytopathic effect was also calculated as described earlier by us [Svinarchuk P. P., Konevetz D. A., Pliasunova O. A., Pokrovsky A. G., Vlassov V. V.//Biochimie, 1993, Bd. 75, S. 243]. […] Comparing the concentrations inducing 50 and 90% inhibition of virus accumulation provides an important characteristic of the anti-viral activity.

[7] = system: MT-4 cells; conditions: human, 4 days
[8] = Human immunodeficiency virus 1, MT4, 96 h, MT-4, HIV-1/EVK, 4 days, read-out: Inhibition of P24 accumulation ID50

| Compound | Number of rosettes per 10^3 cells [1] | Stimulation index [1] | Antibody titer (inverse value) [2] | Immunogenicity coefficient [2] | Inhibition of P24 accumulation ID90 ([3]; MT-4, HIV-1/EVK, 4 days) | EC50 ([3]; MT-4, HIV-1/EVK) [µM] | hazard class ([4]; from LD50, mice) | LD50 ([4]; mice of both sexes) | CD50 [5] [µM] | Inhibition of P24 accumulation ID90 ([6]; MT-4, HIV-1/EVK, 4 days) | EC50 ([6]; concentration protecting by 50% the infected cells from virus-induced cytopathic effect, read-out: PD50) [µM] | IS (selectivity index) ([3]; CD50/ID50) | IC50 [3, 8] [µM] | EC50 ([3]; Human immunodeficiency virus 1, MT4, MT-4, HIV-1/EVK) [µM] | CD50 [7] [µM] | IS (selectivity index) ([6]; CD50/ID50) | IC50 [6, 8] [µM] |
| --- | --- | --- | --- | --- | --- | --- | --- | --- | --- | --- | --- | --- | --- | --- | --- | --- | --- |
| CC1(C)[C@@H](O[C@H]2O[C@H](C(=O)O)[C@@H](O)[C@H](O)[C@H]2O[C@@H]2O[C@H](C(=O)O)[C@@H](O)[C@H](O)[C@H]2O)CC[C@]2(C)[C@H]3C(=O)C=C4[C@@H]5C[C@@](C)(C(=O)O)CC[C@]5(C)CC[C@@]4(C)[C@]3(C)CC[C@@H]12 [GA, glycyrrhizinic acid] | 24 ± 1.1 | 2.0 | 5120 | 25.6 |  |  |  |  |  |  |  |  |  |  |  |  |  |
| N′-{N-[3-oxo-lupan-28-oyl]-9-aminononanoyl}-3-amino-3-phenylpropionic acid [Compound 1] | 24 ± 1.3 |  |  |  | Not achieved | 0.25 | class 3 of moderately hazardous substances | more than 2500 mg/kg | 6.8 | 0.10 µM and 0.1 µM | 0.015 |  |  |  |  |  |  |
| C=C(C)[C@@H]1CC[C@]2(C(=O)NCCCCCCCCC(=O)NC(CC(=O)O)c3ccccc3)CC[C@]3(C)C(CCC4[C@@]5(C)CCC(=O)C(C)(C)C5CC[C@]43C)C12 (stereo partly drawn) [Compound 9] | 21 ± 1.4 | 1.8 | 51200 | 256 | Not achieved |  |  |  |  | 0.198 µM |  | 14.0 | 0.4 | 0.5 | 5.6 | 2135 | 0.0026 |
